Data published in US20160060260A1, “BROMODOMAIN INHIBITORS FOR TREATING DISEASE” (Board of Regents, The University of Texas System, priority 2014, published 2016).

The compounds below were run against T1, Recombinant human His-tagged Trim24-PHD-bromodomain (Homo sapiens, UniProt O15164) (assay: Trim24 AlphaScreen Assay). Conditions: 5 nM Trim24 protein, 15 nM biotinylated H3K23ac (1-33aa) peptide.
T1 construct: Recombinant human His-tagged Trim24-PHD-bromodomain (produced in-house); made in house
T1 sequence (O15164 824-1006 limits assumed): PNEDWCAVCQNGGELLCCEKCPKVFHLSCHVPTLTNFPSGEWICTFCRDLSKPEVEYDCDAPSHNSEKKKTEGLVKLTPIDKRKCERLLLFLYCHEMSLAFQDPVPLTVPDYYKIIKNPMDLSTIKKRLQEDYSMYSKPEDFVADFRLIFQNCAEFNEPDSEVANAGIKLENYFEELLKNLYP
Type: binding
In short: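 His-tagged Trim24-PHD-bromodomain, biotinylated H3K23ac (1-33aa) peptide and compound incubated 1 h at room temperature in 50 mM Hepes pH 7.5, 100 mM NaCl, 0.12 mM Triton X-100.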

| SMILES | IC50 [nM] |
| --- | --- |
| CCc1cc(OCC(C)C)cc(Oc2cc3c(cc2NS(=O)(=O)c2cn(C)cn2)n(C)c(=O)n3C)c1 [Example 226, N-(6-(3-ethyl-5-isobutoxyphenoxy)-1,3-dimethyl-2-oxo-2,3-dihydro-1H-benzo[d]imidazol-5-yl)-1-methyl-1H-imidazole-4-sulfonamide] | 10 to 100 |
| Cc1nc(S(=O)(=O)Nc2cc3c(cc2Oc2ccc(F)c(OCC4CC4)c2)n(C)c(=O)n3C)cn1C [Example 130, N-(6-(3-(cyclopropylmethoxy)-4-fluorophenoxy)-1,3-dimethyl-2-oxo-2,3-dihydro-1H-benzo[d]imidazol-5-yl)-1,2-dimethyl-1H-imidazole-4-sulfonamide] | > 1000 |
| Cn1cnc(S(=O)(=O)Nc2cc3c(cc2Oc2cccc(OCc4cccc(C#N)c4)c2)n(C)c(=O)n3C)c1 [Example 40, N-(6-(3-((3-cyanobenzyl)oxy)phenoxy)-1,3-dimethyl-2-oxo-2,3-dihydro-1H-benzo[d]imidazol-5-yl)-1-methyl-1H-imidazole-4-sulfonamide] | > 1000 |
| Cn1c(=O)n(C)c2cc(Oc3cccc(OCc4ccccc4)c3)c(NS(=O)(=O)c3ccccc3Br)cc21 [Example 37, N-(6-(3-(benzyloxy)phenoxy)-1,3-dimethyl-2-oxo-2,3-dihydro-1H-benzo[d]imidazol-5-yl)-2-bromobenzenesulfonamide] | > 1000 |
| CCCOc1cc(OCCCCNC)cc(Oc2cc3c(cc2NS(=O)(=O)c2ccc(OC)c(OC)c2)n(C)c(=O)n3C)c1 [Example 249, N-(1,3-dimethyl-6-{3-[4-(methylamino)butoxy]-5-propoxyphenoxy}-2-oxo-2,3-dihydro-1H-1,3-benzodiazol-5-yl)-3,4-dimethoxybenzene-1-sulfonamide] | 10 to 100 |
| CCCOc1ccc(F)c(Oc2cc3c(cc2NS(=O)(=O)c2cn(C)cn2)n(C)c(=O)n3C)c1 [Example 104, N-(6-(2-fluoro-5-propoxyphenoxy)-1,3-dimethyl-2-oxo-2,3-dihydro-1H-benzo[d]imidazol-5-yl)-1-methyl-1H-imidazole-4-sulfonamide] | > 1000 |
| Cn1cnc(S(=O)(=O)Nc2cc3c(cc2Oc2cccc(OCC#N)c2)n(C)c(=O)n3C)c1 [Example 76, N-(6-(3-(cyanomethoxy)phenoxy)-1,3-dimethyl-2-oxo-2,3-dihydro-1H-benzo[d]imidazol-5-yl)-1-methyl-1H-imidazole-4-sulfonamide] | 100 to 1000 |
| CCCOc1cc(OCCCOC)cc(Oc2cc3c(cc2NS(=O)(=O)c2ccc(N(C)C)cc2)n(C)c(=O)n3C)c1 [Example 177, 4-(dimethylamino)-N-(6-(3-(3-methoxypropoxy)-5-propoxyphenoxy)-1,3-dimethyl-2-oxo-2,3-dihydro-benzo[d]imidazol-5-yl)benzenesulfonamide] | 100 to 1000 |
| Cc1nc(S(=O)(=O)Nc2cc3c(cc2Oc2cccc(OCCCO)c2)n(C)c(=O)n3C)cn1C [Example 55, N-(6-(3-(3-hydroxypropoxy)phenoxy)-1,3-dimethyl-2-oxo-2,3-dihydro-1H-benzo[d]imidazol-5-yl)-1,2-dimethyl-1H-imidazole-4-sulfonamide] | 100 to 1000 |
| CCCOc1cccc(Oc2cc3c(cc2NS(=O)(=O)c2cc(C)nn2C)n(C)c(=O)n3C)c1 [Example 93, N-(1,3-dimethyl-2-oxo-6-(3-propoxyphenoxy)-2,3-dihydro-1H-benzo[d]imidazol-5-yl)-1,3-dimethyl-1H-pyrazole-5-sulfonamide] | 100 to 1000 |
| Cn1cnc(S(=O)(=O)Nc2cc3c(cc2Oc2cccc(OCCCCC(=O)O)c2)n(C)c(=O)n3C)c1 [Example 228] | 100 to 1000 |
| CC(C)COc1ccc(S(=O)(=O)Nc2cc3c(cc2Oc2cccc(OCc4ccccc4)c2)n(C)c(=O)n3C)cc1 [Example 16, N-(6-(3-(benzyloxy)phenoxy)-1,3-dimethyl-2-oxo-2,3-dihydro-1H-benzo[d]imidazol-5-yl)-4-isobutoxybenzenesulfonamide] | > 1000 |
| CCCOc1cc(OCCCCN)cc(Oc2cc3c(cc2NS(=O)(=O)c2cn(C)cn2)n(C)c(=O)n3C)c1 [Example 186, N-(6-(3-(4-aminobutoxy)-5-propoxyphenoxy)-1,3-dimethyl-2-oxo-2,3-dihydro-1H-benzo[d]imidazol-5-yl)-1-methyl-1H-imidazole-4-sulfonamide] | 1 to 10 |

The remaining lines, values ahead:

| IC50 [nM] | SMILES |
| --- | --- |
| 10 to 100 | CCCOc1cc(OCCCOC)cc(Oc2cc3c(cc2NS(=O)(=O)c2cnn(C)c2C)n(C)c(=O)n3C)c1 [Example 154] |
| 10 to 100 | CCCOc1cc(OCCCOC)cc(Oc2cc3c(cc2NS(=O)(=O)c2cn(C(C)CC)cn2)n(C)c(=O)n3C)c1 (centres unmarked) [Example 148, 1-(sec-butyl)-N-(6-(3-(3-methoxypropoxy)-5-propoxyphenoxy)-1,3-dimethyl-2-oxo-2,3-dihydro-1H-benzo[d]imidazol-5-yl)-1H-imidazole-4-sulfonamide] |
| 10 to 100 | CCCOc1cc(OCCCCCCNC(C)=O)cc(Oc2cc3c(cc2NS(=O)(=O)c2cn(C)cn2)n(C)c(=O)n3C)c1 [Example 242, N-(6-(3-((1,3-dimethyl-6-(1-methyl-1H-imidazole-4-sulfonamido)-2-oxo-2,3-dihydro-1H-benzo[d]imidazol-5-yl)oxy)-5-propoxyphenoxy)hexyl)acetamide] |
| 10 to 100 | CCCOc1cc(OCCCOC)cc(Oc2cc3c(cc2NS(=O)(=O)c2cccnc2)n(C)c(=O)n3C)c1 [Example 137, N-(6-(3-(3-methoxypropoxy)-5-propoxyphenoxy)-1,3-dimethyl-2-oxo-2,3-dihydro-1H-benzo[d]imidazol-5-yl)pyridine-3-sulfonamide] |
| 100 to 1000 | COCCS(=O)(=O)Nc1cc2c(cc1Oc1cccc(OCC(F)(F)F)c1)n(C)c(=O)n2C [Example 89, N-(1,3-dimethyl-2-oxco-6-(3-(2,2,2-trifluoroethoxy)phenoxy)-2,3-dihydro-1H-benzo[d]imidazol-5-yl)-2-methoxyethane-1-sulfonamide] |
| 100 to 1000 | Cc1ncc(S(=O)(=O)Nc2cc3c(cc2Oc2cccc(OCc4ccccc4)c2)n(C)c(=O)n3C)s1 [Example 47, N-(6-(3-(benzyloxy)phenoxy)-1,3-dimethyl-2-oxo-2,3-dihydro-1H-benzo[d]imidazol-5-yl)-2-methylthiazole-5-sulfonamide] |
| 100 to 1000 | CCCOc1cccc(Oc2cc3c(cc2NS(=O)(=O)c2ccc(OC)cc2)n(C)c(=O)n3C)c1 [Example 171, N-(1,3-dimethyl-2-oxo-6-(3-propoxyphenoxy)-2,3-dihydro-1H-benzo[d]imidazol-5-yl)-4-methoxybenzenesulfonamide] |
| 10 to 100 | CCCOc1cc(OCCC)cc(Oc2cc3c(cc2NS(=O)(=O)c2cn(C)c(C)n2)n(C)c(=O)n3C)c1 [Example 90, N-(6-(3,5-dipropoxyphenoxy)-1,3-diemthyl-2-oxo-2,3-dihydro-1H-benzo[d]imidazol-5-yl)-1,2-dimethyl-1H-imidazole-4-sulfonamide] |
| 100 to 1000 | CCCOc1cc(OCCCCCCNC(=O)OC(C)(C)C)cc(Oc2cc3c(cc2NS(=O)(=O)c2cn(C)cn2)n(C)c(=O)n3C)c1 [Example 119, tert-butyl (6-(3-((1,3-dimethyl-6-((1-methyl-1H-imidazole)-4-sulfonamido)-2-oxo-2,3-dihydro-1H-benzo[d]imidazol-5-yl)oxy)-5-propoxyphenoxy)hexyl)carbamate] |
| 100 to 1000 | Cn1cnc(S(=O)(=O)Nc2cc3c(cc2Oc2cccc(OCCCC#N)c2)n(C)c(=O)n3C)c1 [Example 97, N-(6-(3-(3-cyanopropoxy)phenoxy)-1,3-dimethyl-2-oxo-2,3-dihydro-1H-benzo[d]imidazol-5-yl)-1-methyl-1H-imidazole-4-sulfonamide] |
| 100 to 1000 | CCCOc1cc(OCCCOC)cc(Oc2cc3c(cc2NS(=O)(=O)c2ccccc2)n(C)c(=O)n3C)c1 [Example 163, N-(6-(3-(3-methoxypropoxy)-5-propoxyphenoxy)-1,3-dimethyl-2-oxo-2,3-dihydro-1H-benzo[d]imidazol-5-yl)benzenesulfonamide] |
| 100 to 1000 | COCCCOc1cc(C#N)cc(Oc2cc3c(cc2NS(=O)(=O)c2cn(C)c(C)n2)n(C)c(=O)n3C)c1 [Example 120, N-(6-(3-cyano-5-(3-methoxypropoxy)phenoxy)-1,3-dimethyl-2-oxo-2,3-dihydro-1H-benzo[d]imidazol-5-yl)-1,2-dimethyl-1H-imidazole-4-sulfonamide] |
| 10 to 100 | Cn1c(=O)n(C)c2cc(Oc3cccc(OCC(F)(F)F)c3)c(NS(=O)(=O)c3c[nH]cn3)cc21 [Example 88, N-(1,3-dimethyl-2-oxo-6-(3-(2,2,2-trifluoroethoxy)phenoxy)-2,3-dihydro-1H-benzo[d]imidazol-5-yl)-1H-imidazole-4-sulfonamide] |
| 1 to 10 | CCCOc1cc(OCCCC[N+](C)(C)C)cc(Oc2cc3c(cc2NS(=O)(=O)c2ccc(OC)c(OC)c2)n(C)c(=O)n3C)c1 [Example 254, 4-(3-((6-(3,4-dimethoxyphenylsulfonamido)-1,3-dimethyl-2-oxo-2,3-dihydro-1H-benzo[d]imidazol-5-yl)oxy)-5-propoxyphenoxy)-N,N,N-trimethylbutan-1-aminium 2,2,2-trifluoroacetate] |
| 10 to 100 | CCCOc1cccc(Oc2cc3c(cc2NS(=O)(=O)c2ccc(OC)c(NC(C)=O)c2)n(C)c(=O)n3C)c1 [Example 174, N-(5-(N-(1,3-dimethyl-2-oxo-6-(3-propoxyphenoxy)-2,3-dihydro-1H-benzo[d]imidazol-5-yl)sulfamoyl)-methoxyphenyl)acetamide] |
| 10 to 100 | CCCOc1cc(OCCCOC)cc(Oc2cc3c(cc2NS(=O)(=O)c2cnn(C)c2)n(C)c(=O)n3C)c1 [Example 153, N-(6-(3-(3-methoxypropoxy)-5-propoxyphenoxy)-1,3-dimethyl-2-oxo-2,3-dihydro-1H-benzo[d]imidazol-5-yl)-1-methyl-1H-pyrazole-4-sulfonamide] |
